Reference: patent publication US7469185B2, “Primary rat hepatocyte toxicity modeling” (Ocimum Biosolutions, Inc., priority 2002, dated 2008)

What was measured:
in vitro = settings: male, Sprague-Dawley, rat
Experimental: (§1) Identification of toxicity markers was performed by microarray analysis and by the AlamarBlue® assay, a classical measure of cytotoxicity. The AlamarBlue® assay was performed in triplicate.
(§2) The source of the primary rat hepatocytes was Sprague Dawley Outbred CDs Rats (CRL:CD®[SD] IGS BR, Charles River Laboratories). […] Primary rat hepatocytes were received the day after the cells were removed from the animals. After arrival, the cells, the cells were incubated overnight (˜15 hrs) before the toxin was added to the cultures. […] Toxin or vehicle was administered to hepatocyte cultures as follows. For each treatment, i.e., vehicle alone, vehicle+toxin at low dose, or vehicle+toxin at high dose, cells were harvested after 3, 6 and 24-hour incubations with the toxin solution or with the vehicle.
(§3) The AlamarBlue® assay was performed as follows, using only the 24-hour time point samples. • 1. […] The culture medium (HIM) was removed from each well and replaced with 500 μl of fresh HIM following arrival of the cells, and the cells were incubated overnight (approximately 15 hrs) at 37° C., 5% CO2. • 3. The next day, the HIM was removed and 500 μl of the medium containing either vehicle or a dose of toxin was added. • 4. Lysis solution was used as a negative control. 450 μl medium+50 μl 9% Triton X100 were added to each of 3 wells containing cells, for a final Triton concentration of 1%. • 5. The cells in all wells were incubated for 24 hours at 37° C., 5% CO2. • 6. HIM medium was removed, and a solution containing 500 μl of fresh HIM medium+50 μl AlamarBlue® (BioSource International, Inc., Cat. No. DAL1100) was added to each well. • 7. The cells were incubated at 37° C., 5% CO2 for 2 hours. • 8. 100 μl medium was removed from each well of the 24-well plate and added to a well of a 96-well plate. […] Alternatively, two absorbance readings can be measured for the oxidized (600 nm) and the reduced (570 nm) form of AlamarBlueg. After obtaining absorbance readings, results were calculated according to the manufacturer's protocol provided in the product description. • 9. The data were evaluated to determine whether or not the toxin reduced cell viability. If so, the dose of the toxin that reduced cell viability by ˜10-20% was determined. Collection of RNA from Rat Hepatocytes

primary rat hepatocytes = assay: AlamarBlue cell viability assay; settings: 24 hours
Experimental: as §1, §2, §3

[1] = test system: male Sprague Dawley (SD) rats; settings: within 48 hours post dose; 0.1, 1, 2, 3, 4 mL/kg ip; […] po; cited from earlier work
patients [2] = settings: 180 reported cases; cited from earlier work
rats [3] = assay: AY-25329 14 day rat study: serum chemistry and light microscopy; type: in vivo
Description: The present inventors have noted indications of liver and renal effects of AY-25329 by changes in serum chemistry. […] Most of these markers of renal and liver dysfunction remained altered throughout the 14 day study period.

rats [4] = assay: Lovastatin dosing of rats, liver tissue examination; type: in vivo, rat
[5] = oral doses; cited from earlier work
patients [6] = settings: human, in vivo; cited from earlier work

In the case of `COc1ccc2c(c1)c(CC(=O)O)c(C)n2C(=O)c1ccc(Cl)cc1` [Indomethacin], the viability at 24 h, 0.1 mM (in vitro) is reported as ~100% and the viability at 24 h, 1 mM (in vitro) is reported as 85 to 90%.
In the case of `CN(C)N=O` [DMN, dimethylnitrosamine], the “% viability by AlamarBlue test” value (primary rat hepatocytes; high dose 100 mM) is reported as ~80-85% and the “% viability by AlamarBlue test” value (primary rat hepatocytes; low dose 1 mM) is reported as ~100%.
Molecule `CCOC(=O)C(C)(C)Oc1ccc(Cl)cc1` [Clofibrate] has a viability at 24 h, 0.5 mM (in vitro) of ~100% and a viability at 24 h, 5 mM (in vitro) of 80 to 85%.
For `CN(C)CCCN1c2ccccc2Sc2ccc(Cl)cc21` [Chlorpromazine], the viability at 24 h, 3 uM (in vitro) was ~100%.
With `Cc1cccc(Nc2cc(Cl)nc(SCC(=O)O)n2)c1C` [Wy-14643] the viability at 24 h, 10 uM (in vitro) was ~100% and the viability at 24 h, 100 uM (in vitro) was ~90%.
In the case of `ClC(Cl)(Cl)Cl` [CCl4, carbon tetrachloride], the viability at 24 h, 0.1 mM (in vitro) is given as ~100%, the viability at 24 h, 10 mM (in vitro) is given as 80 to 85% and the “ALT and AST peak levels, fold increases” value [1] is given as 5-10 fold.
`NN` [Hydrazine] gave a viability at 24 h, 0.1 mM (in vitro) of 90 to 95% and a viability at 24 h, 1 mM (in vitro) of 80 to 85%.
In the case of `CCC1(c2ccccc2)C(=O)NC(=O)NC1=O` [Phenobarbital], the viability at 24 h, 0.8 mM (in vitro) is reported as ~100% and the viability at 24 h, 8 mM (in vitro) is reported as > 95%.
`NC(=O)N1c2ccccc2C=Cc2ccccc21` [Carbamazepine] showed a viability at 24 h, 0.01 mM (in vitro) of ~100% and a viability at 24 h, 1 mM (in vitro) of ~90%.
In the case of `O=C(O)Cc1ccccc1Nc1c(Cl)cccc1Cl` [Diclofenac], the viability at 24 h, 55 uM (in vitro) is given as ~100%, the viability at 24 h, 550 uM (in vitro) is given as ~70% and the “jaundice, share of the symptomatic patients” value (patients [2]) is given as 75%.
For `C#C[C@]1(O)CC[C@H]2[C@@H]3CCc4cc(O)ccc4[C@H]3CC[C@@]21C` [17α-ethinylestradiol], the “% viability by AlamarBlue test” value (primary rat hepatocytes; high dose 100 uM) was ~80% and the “% viability by AlamarBlue test” value (primary rat hepatocytes; low dose 10 uM) was ~100%.
Molecule `Cc1ccc(C)c(OCCCC(C)(C)C(=O)O)c1` [Gemfibrozil, gemfibrozil] has a viability at 24 h, 0.3 mM (in vitro) of ~100% and a viability at 24 h, 3 mM (in vitro) of ~50%.
For `S=C=Nc1cccc2ccccc12` [ANIT, α-naphthylisothiocyanate], the viability at 24 h, 25 uM (in vitro) was ~100% and the viability at 24 h, 250 uM (in vitro) was ~60%.
`CN(Cc1cnc2nc(N)nc(N)c2n1)c1ccc(C(=O)N[C@@H](CCC(=O)O)C(=O)O)cc1` [Methotrexate] gave a viability at 24 h, 1 mM (in vitro) of ~100% and a viability at 24 h, 10 mM (in vitro) of ~90%.
`CC(=O)O[C@]1(C(C)=O)CC[C@H]2[C@@H]3C=C(Cl)C4=CC(=O)[C@@H]5C[C@@H]5[C@]4(C)[C@H]3CC[C@@]21C` [Cyproterone acetate] showed a viability at 24 h, 40 uM (in vitro) of ~100% and a viability at 24 h, 400 uM (in vitro) of 65 to 70%.
For `O=C(CCN1CCN2CCCC2C1)N1c2ccccc2Sc2ccc(Cl)cc21` (stereo not shown) [AY-25329], the viability at 24 h, 5 uM (in vitro) was ~100%, the viability at 24 h, 50 uM (in vitro) was ~90% and the “light microscopic analysis, effects in the liver” value (rats [3]; 6 and 24 hours) was “increased number of hepatocytic mitotic figures and decreased glycogen content”. For the same molecule, the “findings after repeated dosing” value (rats [3]; 14 days of repeated dosing, 250 mg/kg/day) was “nephrosis and alterations in the peripheral lobes of the liver and in the cytoplasm of hepatocytes” and the “serum levels of creatinine, BUN, ALT, triglycerides and cholesterol” value (rats [3]; as early as 6 hours after the first dose) was “statistically significant increases”.
In the case of `CC[C@H](C)C(=O)O[C@H]1C[C@@H](C)C=C2C=C[C@H](C)[C@H](CC[C@@H]3C[C@@H](O)CC(=O)O3)[C@H]21` [Lovastatin], the viability at 24 h, 0.1 mM (in vitro) is reported as ~100%, the viability at 24 h, 1 mM (in vitro) is reported as ~100% and the “effects in liver tissue” value (rats [4]; 9 or 90 mg/kg twice a day, after 6 or after 24 hours) is reported as “no effects were noted”. The “effects in liver cells” value (rats [4]; after 14 days of treatment at the higher dosage (90 mg/kg twice a day)) was “abnormal vacuolization of the cytoplasm” and the “metabolites excreted in the urine” value [5] was “less than 13%”.
With `O=C(O)c1cc(-c2ccc(F)cc2F)ccc1O` [Diflunisal] the viability at 24 h, 30 uM (in vitro) was ~100% and the viability at 24 h, 300 uM (in vitro) was 85 to 90%.
`CN(C)[C@@H]1C(O)=C(C(N)=O)C(=O)[C@@]2(O)C(O)=C3C(=O)c4c(O)cccc4[C@@](C)(O)[C@H]3C[C@@H]12` [Tetracycline] gave a viability at 24 h, 0.1 mM (in vitro) of ~100% and a viability at 24 h, 1 mM (in vitro) of 85 to 90%.
For `CCCC(CCC)C(=O)O` [Valproate, n-dipropylacetic acid], the viability at 24 h, 0.4 mg/ml (in vitro) is listed as ~100% and the “patients with elevated levels of hepatic enzymes” value (patients [6]) is listed as “about 40%”.
Molecule `CC/C(=C(\c1ccccc1)c1ccc(OCCN(C)C)cc1)c1ccccc1` [Tamoxifen] has a viability at 24 h, 4 uM (in vitro) of ~100% and a viability at 24 h, 40 uM (in vitro) of ~45%.
